Positions count from the first letter of the chain named.
Key:
κB-Ras1 [1] = target: T1, κB-Ras1 (Homo sapiens, UniProt Q9NYS0, L65Q); assay: intrinsic GTP hydrolysis, HPLC of GTP/GDP; type: biochemical; settings: 100 µM GTP, 24 h, 5 mM MgCl2, pH 7.5
T1 construct: gene NKIRAS1; residues 2-175, GST fusion from E. coli Rosetta, GST cut on column with PreScission protease, SEC
T1 sequence (Q9NYS0 2-175 L65Q): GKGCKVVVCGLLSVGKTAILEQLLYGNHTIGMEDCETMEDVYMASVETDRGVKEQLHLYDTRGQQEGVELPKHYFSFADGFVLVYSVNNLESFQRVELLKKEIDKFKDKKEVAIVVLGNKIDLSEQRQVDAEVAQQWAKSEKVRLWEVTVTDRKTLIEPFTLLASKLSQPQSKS

κB-Ras1 [2] = target: T2, κB-Ras1 (Homo sapiens, UniProt Q9NYS0); assay: intrinsic GTP hydrolysis, HPLC of GTP/GDP; type: biochemical; settings: 100 µM GTP, 24 h, 5 mM MgCl2, pH 7.5
T2 construct: gene NKIRAS1; residues 2-175, GST fusion from E. coli Rosetta, GST cut on column with PreScission protease, SEC
T2 sequence (Q9NYS0 2-175): T1 sequence (Q9NYS0 2-175 L65Q) with Q64L

κB-Ras1 [3] = target: T3, κB-Ras1 (Homo sapiens, UniProt Q9NYS0, G64A); assay: intrinsic GTP hydrolysis, HPLC of GTP/GDP; type: biochemical; settings: 100 µM GTP, 24 h, 5 mM MgCl2, pH 7.5
T3 construct: gene NKIRAS1; residues 2-175, GST fusion from E. coli Rosetta, GST cut on column with PreScission protease, SEC
T3 sequence (Q9NYS0 2-175 G64A): T1 sequence (Q9NYS0 2-175 L65Q) with G63A, Q64L

κB-Ras1–RGα2N complex = target: T4, κB-Ras1–RGα2N complex (Homo sapiens, UniProt Q9NYS0); assay: X-ray crystal structure, […] Å; settings: Mg2+; 100 µM GNP added; nucleotide-binding pocket of κB-Ras1
T4 construct: gene NKIRAS1; GST-κB-Ras1 (2-175; 1-175 in Results) coexpressed in bacteria with 6xHis-SUMO-RGα2N (2-255, N-terminal domain); SUMO protease added, purified essentially as before, SEC
T4 sequence (Q9NYS0 2-175): T1 sequence (Q9NYS0 2-175 L65Q) with Q64L
T4 sequence (Q2PPJ7 2-255 partner): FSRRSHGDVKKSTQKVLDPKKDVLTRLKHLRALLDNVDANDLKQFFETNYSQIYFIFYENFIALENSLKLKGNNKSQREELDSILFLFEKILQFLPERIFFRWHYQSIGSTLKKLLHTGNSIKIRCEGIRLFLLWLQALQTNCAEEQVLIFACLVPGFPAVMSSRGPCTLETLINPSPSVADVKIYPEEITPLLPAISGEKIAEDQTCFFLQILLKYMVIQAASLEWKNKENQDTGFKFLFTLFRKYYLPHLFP

Compound | intrinsic GTP hydrolysis, HPLC of GTP/GDP (κB-Ras1 [1]) | intrinsic GTP hydrolysis, HPLC of GTP/GDP (κB-Ras1 [2]) | intrinsic GTP hydrolysis, HPLC of GTP/GDP (κB-Ras1 [3]) | X-ray crystal structure, 2.72 Å (κB-Ras1–RGα2N complex)
Nc1nc2c(ncn2[C@@H]2O[C@H](COP(=O)(O)OP(=O)(O)OP(=O)(O)O)[C@@H](O)[C@H]2O)c(=O)[nH]1 [GTP] | GTP hydrolysis was also not altered by this mutation | intrinsic GTP hydrolysis by K-Ras, Rheb, κB-Ras1 WT, and variants measured in vitro | This substitution did not reduce intrinsic GTP hydrolysis activity of κB-Ras1 in vitro | –
Nc1nc2c(ncn2[C@@H]2O[C@H](COP(=O)(O)OP(=O)(O)NP(=O)(O)O)[C@@H](O)[C@H]2O)c(=O)[nH]1 [GNP, 5′-guanylyl imidodiphosphate] | – | – | – | nucleotide-binding pocket of κB-Ras1 is occupied by a magnesium ion and the nonhydrolyzable GTP analog
